Source: patent US4681894A, “Hydroxamic acids and esters” (Ortho Pharmaceutical Corporation, priority 1986, dated 1987)

Columns and labels:
[1] = target: T1, 5-lipoxygenase (Rattus norvegicus, UniProt P12527); experiment: Inhibition of 5-lipoxygenase (5-HETE production) in whole RBL-1 cells; format: cell-based; details: in vitro, RBL-1 whole cells, A23187 1.9 μM, 55 μM 14C-arachidonic acid, 37° C; highest concentration tested 10 μM; read-out: IC50 (lipoxygenase inhibitory activity)
T1 construct: 5-HETE Production in Whole Cells; endogenous in cells; host or cells: RBL-1 (rat basophilic leukemia cells)
T1 sequence (P12527 1-673): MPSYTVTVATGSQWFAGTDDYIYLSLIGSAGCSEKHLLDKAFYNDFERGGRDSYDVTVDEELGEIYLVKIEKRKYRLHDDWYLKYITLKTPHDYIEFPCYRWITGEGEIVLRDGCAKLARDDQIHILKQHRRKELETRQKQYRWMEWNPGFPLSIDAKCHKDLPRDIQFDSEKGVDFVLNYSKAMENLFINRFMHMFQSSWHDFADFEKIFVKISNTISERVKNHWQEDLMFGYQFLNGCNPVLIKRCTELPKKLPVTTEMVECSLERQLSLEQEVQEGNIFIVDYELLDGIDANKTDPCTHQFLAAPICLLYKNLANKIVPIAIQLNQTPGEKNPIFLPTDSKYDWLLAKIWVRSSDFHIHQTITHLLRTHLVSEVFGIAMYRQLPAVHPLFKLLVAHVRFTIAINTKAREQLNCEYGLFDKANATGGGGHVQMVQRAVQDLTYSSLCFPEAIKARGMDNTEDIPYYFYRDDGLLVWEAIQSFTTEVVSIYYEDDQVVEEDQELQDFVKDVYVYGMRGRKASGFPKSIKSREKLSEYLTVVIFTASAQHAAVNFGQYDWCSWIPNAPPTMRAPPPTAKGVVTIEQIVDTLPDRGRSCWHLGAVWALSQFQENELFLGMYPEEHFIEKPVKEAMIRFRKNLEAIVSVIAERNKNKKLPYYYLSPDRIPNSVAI
Procedure: Rat basophilic leukemia cells (RBL-1) were grown in Eagle's Minimal Essential Medium containing 10% fetal calf serum. 5% calf serum, 1% glutamine and 50 mg/l gentamycin were maintained at 37° C. in an atmosphere containing 5% CO2. Exponentially growing cells were harvested by centrifugation at 400×g for 10 minutes at 4° C. and were washed once with Dulbecco's phosphate buffered saline containing 0.87 mM CaCl2. The cells were resuspended in the same buffer at a concentration of 1.85×10^7 cells/ml.
RBL-1 cells (1.57×10^7 cells/tube) were preincubated for 10 minutes at 37° C. in the presence of the indicated drugs or vehicle (1% DMSO). Following the transfer of the assay tubes to an icebath, the reaction was initiated by the sequential addition of calcium ionophore A23187, an agent which increases the ability of divalent ions such as Ca^++ to cross biological membranes (final concentration=1.9 μM) and 55 μM 1-^14 C-arachidonic acid (New England Nuclear) at a final specific activity of 3000-4000 cpm/nmole. The final volume in each tube was 1 ml. The assay tubes were incubated at 37° C. for 5 minutes, and the reaction was stopped by transferring the tubes to ice and adjusting the pH of the reaction mixture to pH 3.0-3.5 by the addition of 1M citric acid.
In order to isolate the Δ5 -lipoxygenase product, ^14 C-5-HETE that was formed from arachidonic acid, each assay tube was extracted once with 6 volumes of anhydrous diethyl ether. In most assays, the recovery of product was estimated by determining the total amount of radioactivity recovered after extraction. In the remaining assays the recovery of ^14 C-5-HETE was monitored by addition of trace quantities of ^3 H-5-HETE (New England Nuclear) prior to extraction. The ether fractions from each sample were dried under nitrogen, redissolved and spotted on Gleman silica gel-impregnated glass fiber sheets. The plates were developed in iso-octane:2-butanone:glacial acetic acid (100:9:1). The area of each plate corresponding to added 5-HETE standard was visualized in an iodine chamber. The amount of ^14 C-5-HETE presented was quantitated by liquid scintillation counting in Aquasol II (New England Nuclear) and corrected for recovery. The percent inhibition of lipoxygenase activity represents the decrease in the amount of product formed from arachidonic acid by the cells or cell supernatant in the presence of drug. The values for negative controls (assays incubated on ice in the presence of citric acid) were always less than 10% of the positive controls and were subtracted from each tube. The IC50 is the concentration of drug which is required for 50% inhibition of the enzyme, as determined graphically from assays using multiple concentrations of drug.

[2] = system: Lewis strain laboratory rats; experiment: In vivo alleviation of inflammation: Mycobacterium butyricum-induced polyarthritis, inhibition of paw volume increase; parameters: species or system rat (Lewis strain); details: Rattus norvegicus, po, five consecutive days from day 10, paw volume about 4 h after final dose, read-out: % Inhibition Oral Dosage (percentage inhibition of pad swelling); for inhibition in vivo at 50 mg/kg: 50 mg/kg p.o.
Procedure: Polyarthritis was induced in Lewis strain laboratory rats (weight=about 200 grams) by injection of a suspension of Mycobacterium butyricum in mineral oil into the subplantar tissue of the mammals' hind paws. On day 10 after the injection, the rats were assigned to groups, and paw volumes and body weights were recorded. Paw volumes of the contralateral, uninjected hind paw were determined by mercury plethylsmography. Per os (p.o.) dosing began and continued for five consecutive days thereafter. On day 14 after the initial injection, approximately four hours after the final dose was administered, paw volumes and body weights were recorded and quantitated.
Anti-inflammatory activity of the substituted naphthalene compounds is expressed as the present inhibition of paw volume increase.

Row | IC50 [1] | Structure (SMILES) | inhibition in vivo at 50 mg/kg [2] | inhibition in vivo at 22 mg/kg ([2]; 22 mg/kg p.o.) | inhibition in vivo at 40 mg/kg ([2]; 40 mg/kg p.o.)
1 | 110 nM | CCN(O)C(=O)CCCCC(=O)c1ccc2cc(OC)ccc2c1 [Example 17, N-Ethyl-N-hydroxy-6-(6-methoxy-2-naphthyl)-6-oxohexanamide] | 23% |  | 
2 | 100 nM | COc1ccc2cc(C(=O)CCCCC(=O)N(O)c3ccccc3)ccc2c1 [Example 22, N-Hydroxy-N-phenyl-6-(6-methoxy-2-naphthyl)-6-oxohexanamide] | 28% |  | 
3 | > 10000 nM | C=CCOc1ccc2cc(C(=O)CCCCC(=O)OCC)ccc2c1 [Example 12, Ethyl 6-(6-allyloxy-2-naphthyl)-6-oxohexanoate] | 44% |  | 
4 | 400 nM | COc1ccc2cc(C(=O)CCCCC(=O)N(O)C3CCCCC3)ccc2c1 [Example 21, N-Hydroxy-N-cyclohexyl-6-(6-methoxy-2-naphthyl)-6-oxohexanamide] | 33% |  | 
5 | 450 nM | COc1ccc2cc(C(=O)CCCCC(=O)N(O)C(C)(C)C)ccc2c1 [Example 20, N-tert-Butyl-N-hydroxy-6-(6-methoxy-2-naphthyl)-6-oxohexanamide] |  |  | 
6 | > 10000 nM | CCOC(=O)CCCCC(=O)c1ccc2cc(OC)ccc2c1 [Example 2, Ethyl 6-(6-methoxy-2-naphthyl)-6-oxohexanoate] |  | 50% | 
7 |  | COC(=O)CCCCCCC(=O)c1ccc2cc(OC)ccc2c1 [Example 4, Methyl 8-(6-methoxy-2-naphthyl)-8-oxooctanoate] | 53% |  | 
8 |  | COc1ccc2cc(C(=O)CCCCCCC(=O)O)ccc2c1 [Example 6, 8-(6-Methoxy-2-naphthyl)-8-oxooctanoic acid] | 47% |  | 
9 | 370 nM | CCCCN(O)C(=O)CCCCC(=O)c1ccc2cc(OC)ccc2c1 [Example 18, N-Butyl-N-hydroxy-6-(6-methoxy-2-naphthyl)-6-oxohexanamide] |  |  | 
10 | 1600 nM | CCCCCCCN(O)C(=O)CCCCC(=O)c1ccc2cc(OC)ccc2c1 [Example 19, N-Heptyl-N-hydroxy-6-(6-methoxy-2-naphthyl)-6-oxohexanamide] |  |  | 
11 | > 10000 nM | COc1ccc2cc(C(=O)CCCCC(=O)N(C)OC)ccc2c1 [Example 23, N-Methoxy-N-methyl-6-(6-methoxy-2-naphthyl)-6-oxohexanamide] | 60% |  | 
12 | 250 nM | COc1ccc2cc(C(=O)CCCCC(=O)N(C)O)ccc2c1 [Example 15, N-Hydroxy-N-methyl-6-(6-methoxy-2-naphthyl)-6-oxohexanamide] |  |  | 34%
13 | 10000 nM | COc1ccc2cc(C(=O)CCCCC(=O)NO)ccc2c1 [Example 16, N-Hydroxy-6-(6-methoxy-2-naphthyl)-6-oxohexanamide] |  |  | 
14 |  | C#CCOc1ccc2cc(C(=O)CCCCC(=O)OCC)ccc2c1 [Example 14, Ethyl 6-(6-propynyloxy-2-naphthyl)-6-oxohexanoate] | 23% |  | 
15 |  | CCOC(=O)CCCCCCC(=O)c1ccc2cc(OC)ccc2c1 [Example 1, Ethyl 8-(6-methoxy-2-naphthyl)-8-oxooctanoate] | 48% |  | 
16 | 120 nM | COc1ccc2cc(C(=O)CCCCC(=O)N(O)C(C)C)ccc2c1 [Example 24, N-Hydroxy-N-isopropyl-6-(6-methoxy-2-naphthyl)-6-oxohexanamide] | 51% |  | 
17 | > 10000 nM | CCOC(=O)CCCCC(=O)c1ccc2cc(O)ccc2c1 [Example 8, Ethyl 6-(6-hydroxy-2-naphthyl)-6-oxohexanoate] | 12% |  | 
